Results published in patent US9340559B2, “Proteasome inhibitor delanzomib for use in the treatment of lupus” (Cephalon, Inc., priority 2011, dated 2016).

How the values were obtained:
Type in all cases: in vivo, mouse
[1] = tested on: NZM mice; assay: Renal histopathology scoring (kidney IC-GN), NZM mice (Example 2)
Procedure: (§1) For histological analyses, the left kidney from each animal is removed and fixed in 10% buffered neutral formalin (EMD) for 48 hours on an orbital rocker at 25° C., then washed overnight with running dH2O and stored in 70% ethanol at 4° C. until ready to be processed. Kidney stains used for histological analyses included hematoxylin and eosin (H&E), Periodic Acid Schiff (PAS) and Trichrome stains (Wistar Institute, Philadelphia, Pa.). All 3 stained sections are used by the pathologist for scoring purposes. All histological scoring is performed blinded and by an independent board certified veterinary medical pathologist (Julie Engiles, VMD, DACVP). Multiple stains are used to determine score values. Images in FIG. 39 show worst affected area of section selected blindly by the pathologist.
(§2) Kidney IC-GN Scoring Method (Smith, Dong et al. 2007):
(§3) 1. Glomerular cellularity—Score 1-5: Null, low, moderate, high, severe
(§4) 2. Glomerular necrosis—Score 1-5: Null, low, moderate, high, severe
(§5) 3. Glomerulosclerosis—Score 1-5: Null, low, moderate, high, severe
(§6) 4. Interstitial infiltration—Score 1-5: Null, low, moderate, high, severe
(§7) 5. Tubular atrophy—Score 1-5: Null, low, moderate, high, severe
(§8) 6. Interstitial fibrosis—Score 1-5: Null, low, moderate, high, severe
(§9) 7. Vasculitis—Score 1-5: Null, low, moderate, high, severe
(§10) Specific Pathologist Definitions: • Necrosis is defined by the presence of nuclear debris/pyknosis within the glomerular tuft indicative of “necrosis.” In many samples, this is a very mild, rare finding within only a very few segments of the glomerular tuft. Also consider effacement of the glomerular tuft by PAS positive, Trichrome negative material necrosis. • Glomerular sclerosis is defined by increased fibroplasia or fibrosis within the glomerular tuft or capsule. […] Most of the vascular changes are mild and could be considered “arteriosclerosis” characterized by proliferation of the smooth muscle cells, and hyalinization of the extracellular matrix. This change may reflect hypertension secondary to glomerular pathology. In very few animals is there overt “vasculitis.” Most inflammatory changes are within the walls of the blood vessels, with little to no damage to the endothelium, and no overt hemorrhage/fibrin leakage. Many also have perivascular rims of fibroblasts.

[2] = tested on: NZM mice; assay: Body weight progression, NZM mice (Example 2)
[3] = tested on: MRL/lpr mice; assay: Renal histopathology scoring (kidney IC-GN), MRL/lpr mice
Procedure: as §1, with “neutral 10%” for “neutral”, “17” for “39”
as §2, §3, §4, §5, §6, §7, §8, §9, §10

For `CC(C)C[C@H](NC(=O)[C@H](Cc1ccccc1)NC(=O)c1cnccn1)B(O)O` [bortezomib, reference compound], the “Kidney glomerular cellularity, percent change vs vehicle” value ([1]; G3 0.3 mg/kg ip, 1× wk) was −12%, the “Kidney glomerular necrosis, percent change vs vehicle” value ([1]; G3 0.3 mg/kg ip, 1× wk) was 18% and the “Kidney glomerulosclerosis, percent change vs vehicle” value ([1]; G3 0.3 mg/kg ip, 1× wk) was 8%. The “Kidney interstitial fibrosis, percent change vs vehicle” value ([1]; G3 0.3 mg/kg ip, 1× wk) was −5%, the “Kidney interstitial infiltration, percent change vs vehicle” value ([1]; G3 0.3 mg/kg ip, 1× wk) was −15% and the “Kidney tubular atrophy, percent change vs vehicle” value ([1]; G3 0.3 mg/kg ip, 1× wk) was −6%. The “Kidney vasculitis, percent change vs vehicle” value ([1]; G3 0.3 mg/kg ip, 1× wk) was −21%, the “p, interstitial infiltration (II) vs G7 Vehicle” value ([1]; G4 0.3 mg/kg 2× wk) was “p < 0.05” and the “Kidney glomerular cellularity, percent change vs vehicle” value ([1]; G4 0.3 mg/kg ip, 2× wk) was −21%. The “Kidney glomerular necrosis, percent change vs vehicle” value ([1]; G4 0.3 mg/kg ip, 2× wk) was 3%, the “Kidney glomerulosclerosis, percent change vs vehicle” value ([1]; G4 0.3 mg/kg ip, 2× wk) was −29% and the “Kidney interstitial fibrosis, percent change vs vehicle” value ([1]; G4 0.3 mg/kg ip, 2× wk) was −22%. For the same compound, the “Kidney interstitial infiltration, percent change vs vehicle” value ([1]; G4 0.3 mg/kg ip, 2× wk) was −44%, the “Kidney tubular atrophy, percent change vs vehicle” value ([1]; G4 0.3 mg/kg ip, 2× wk) was −32% and the “Kidney vasculitis, percent change vs vehicle” value ([1]; G4 0.3 mg/kg ip, 2× wk) was −14%. For the same compound, the “interstitial infiltration reduction vs vehicle” value ([1]; bortezomib treatment group (twice weekly dose)) was 44%, the “decrease in renal histopathology score over several parameters vs vehicle” value ([1]; mouse, in vivo) was 6-14% and the “Body mass AUC, percent change vs vehicle” value ([2]; G3 0.3 mg/kg ip, 1× wk) was “+13%”. For the same compound, the “Body mass AUC, percent change vs vehicle” value ([2]; G4 0.3 mg/kg ip, 2× wk) was “+11%”, the “EOS glomerular cellularity, percent change vs vehicle” value ([3]; G4: 0.5 mg/kg iv, 1× wk) was −31% and the “EOS glomerular necrosis, percent change vs vehicle” value ([3]; G4: 0.5 mg/kg iv, 1× wk) was −28%. For the same compound, the “EOS glomerulosclerosis, percent change vs vehicle” value ([3]; G4: 0.5 mg/kg iv, 1× wk) was −42%, the “EOS interstitial infiltration, percent change vs vehicle” value ([3]; G4: 0.5 mg/kg iv, 1× wk) was −47% and the “EOS vasculitis, percent change vs vehicle” value ([3]; G4: 0.5 mg/kg iv, 1× wk) was −42%. For the same compound, the “Kidney EOS interstitial fibrosis, percent change vs vehicle” value ([3]; G4: 0.5 mg/kg iv, 1× wk) was −46%, the “Kidney EOS tubular atrophy, percent change vs vehicle” value ([3]; G4: 0.5 mg/kg iv, 1× wk) was −50% and the “EOS glomerular cellularity, percent change vs vehicle” value ([3]; G5: 0.3 mg/kg iv, 2× wk) was −15%. For the same compound, the “EOS glomerular necrosis, percent change vs vehicle” value ([3]; G5: 0.3 mg/kg iv, 2× wk) was −25%, the “EOS glomerulosclerosis, percent change vs vehicle” value ([3]; G5: 0.3 mg/kg iv, 2× wk) was −18% and the “EOS interstitial infiltration, percent change vs vehicle” value ([3]; G5: 0.3 mg/kg iv, 2× wk) was −39%. For the same compound, the “EOS vasculitis, percent change vs vehicle” value ([3]; G5: 0.3 mg/kg iv, 2× wk) was −21%, the “Kidney EOS interstitial fibrosis, percent change vs vehicle” value ([3]; G5: 0.3 mg/kg iv, 2× wk) was −27% and the “Kidney EOS tubular atrophy, percent change vs vehicle” value ([3]; G5: 0.3 mg/kg iv, 2× wk) was −27%. The “maximum reduction of renal interstitial infiltration vs vehicle” value ([3]; bortezomib groups) was 47% and the “decrease in average renal pathology score vs vehicle” value ([3]; treated weekly with bortezomib) was 1.68 fold.
